Assay results as given in patent US4007201A, “Novel pyrazole derivatives” (Kyorin Pharmaceutical Co. Ltd., priority 1975, dated 1977).
Like-named read-outs stand apart in the source and are kept apart here.

Legend:
Assay type in all cases: in vivo, male Sprague Dawley rats
[1] = test system: blood glucose level in non-diabetic rats; assay: Hypoglycemic activity in non-diabetic rats (screening test); conditions: Rattus norvegicus, 100 mg/kg oral, fasted, glucose s.c.
Experimental: (§1) These new compounds of the present invention are very useful as anti-diabetic agents, which is supported from the following pharmacological studies. The animals used for the pharmacological studies were male Sprague Dawley rats exept otherwise noted. 1. Hypoglycemic activity in non-diabetic rats (screening test)
The rats were fasted for 16 - 18 hours prior to the experiment and those weighing 140 - 160g were used. Glucose solution (100 mg/0.5ml/150g body weight) was subcutaneously injected on the fasted rats. Each of the present compounds was suspended in 1% carboxymethyl cellulose (CMC), and about 0.5 ml of the suspension (corresponding to 100 mg/kg of the compound per body weight) was orally administered. Blood samples were taken from the tail vein of the rats at 2 and 5 hours after the administration, and the blood glucose level in each sample (0.1 ml) was determined by the micro method of Momose as described in SOGO-RINSHO 11, 120 (1962).
3,5-Dinitrophthalic acid is reduced with glucose to stable orange-red azo-compound via red hydroxyaminophthalic acid in basic media.
To 0.5ml of water was added 0.1ml of blood and shaken to hemolyze, and to which was added 1.7ml of 0.06N barium hydroxide solution. To the resulting dark-brown solution was added 1.7ml of zinc sulfate solution (1g/dl), and which was shaken thoroughly and allowed to stand for 2-3min followed by centrifugation.
One ml of 3,5-dinitrophthalic acid solution (1.5g of monopyridinium-3,5-dinitrophthalate in 500ml of water) and 1 ml of sodium carbonatesodium hyposulfite solution (125-25g/500ml) were added to 2ml of spernatant solution. The solution was heated at 100° C for 10 min. After cooling with running water for 3 min, water was added to make 20ml.
To 2ml of water were added 3,5-dinitrophthalic acid solution and an alkaline solution, and the solution was treated as mentioned above.
As the absorbance of reference at 450nm was adjusted to 0, the absorbance of sample corresponded to blood glucose level.

[2] = test system: blood glucose level in streptozotocin-diabetic rats; assay: Hypoglycemic effect in streptozotocin-diabetic rats; conditions: Rattus norvegicus; 100 mg/kg oral; 4 hours
Experimental: The animals used for the pharmacological studies were male Sprague Dawley rats exept otherwise noted. 1. […]
The rats were fasted for 16 hours, and then streptozotocin was intravenously injected in a dose of 65 mg/kg. Oral administration of the compound 4 was performed at 48 hours after the injection of streptozotocin. Blood samples were taken at 4 hours after the oral administration, and the blood glucose level in each sample was determined.

[3] = test system: serum FFA level in non-diabetic rats; assay: Serum free fatty acids (FFA) level in non-diabetic rats at 90 minutes; conditions: 100 mg/kg oral
Experimental: as §1
(§2) The rats were fasted for 16-18 hours, and those weighing 130-160g were used. The compound 4 suspended in 1% CMC was orally administered to the fasted rats, and at 90 minutes after administration blood was drawn from the […] vena cava under anesthesia with sodium pentobarbital. The blood glucose level was determined by the method of Momose, and the serum FFA level was determined by the method of Itaya and Ui as described in J. Lipid Res., 6, 16 (1965), respectively.

[4] = test system: blood glucose level in alloxan diabetic rats; assay: Hypoglycemic effect in alloxan diabetic rats; conditions: ± SE
Experimental: as §1
(§3) Alloxan diabetic rats were obtained as follows. Namely, 2.5% fresh solution of alloxan (50mg/kg) was injected into the tail vein of male rats, and the rats were daily injected with insulin (1-4 units/day) from the 7th day after the administration of alloxan. The alloxan diabetic rats which were survived for more than 2 months with daily injection of insulin were used. The alloxan diabetic rats were fasted for 24 hours after the last treatment with insulin, and then the compound of the present invention was orally administered. The blood glucose levels were determined by the micro method of Momose before and 2, 4 and 6 hours after the administration.

[5] = test system: blood glucose level in non-diabetic rats; assay: Blood glucose level in non-diabetic rats at 90 minutes; conditions: 100 mg/kg oral
Experimental: as §1, §2

[6] = test system: serum cholesterol level in alloxan diabetic rats; assay: Serum cholesterol level in alloxan diabetic rats, 10 consecutive days; conditions: 100 mg/kg, 10 consecutive days
Experimental: as §1, §3
(§4) The alloxan diabetic rats which were prepared and then preserved for 6 months with insulin as described in the previous experiment were used.

[7] = test system: serum FFA level in alloxan diabetic rats; assay: Serum FFA level in alloxan diabetic rats, 10 consecutive days; conditions: 100 mg/kg, 10 consecutive days
Experimental: as §1, §3, §4

[8] = test system: blood glucose level in alloxan diabetic rats; assay: Blood glucose level in alloxan diabetic rats loaded with much quantity of glucose; conditions: alloxan diabetic rats; dose not stated
Experimental: as §1
Respective dose of the compound 4 (12.5 and 100 mg/kg) together with 2g/kg of glucose was orally administered to the alloxan diabetic rats.

[9] = test system: serum FFA level in fasted rats; assay: Time course of the serum FFA level in fasted rats (FIG. 1); conditions: 50 mg/kg oral; 0.5, 1, 2, 4 and 6 hours
Experimental: as §1
Further experiment was performed to clarify the effectiveness of the compound 4 on the serum FFA. Blood samples were taken at 0.5, 1, 2, 4 and 6 hours after an oral administration of 50 mg/kg to the fasted rats and the serum FFA levels were determined.

[10] = 2 hours, read-out: Reduction % of blood glucose from control after 2 hours
[11] = 5 hours, read-out: Reduction % of blood glucose from control after 5 hours

Row | Structure (SMILES) | inhibition in vivo at 100 mg/kg [1, 10] [%] | inhibition in vivo at 100 mg/kg [1, 11] [%] | other results
1 | Cc1cc(C)n(C(=O)CNS(=O)(=O)c2ccc(CC(C)C)cc2)n1 [Example 11, 1-[N-(p-isobutylbenzenesulfonyl)-glycyl]-3,5-dimethylpyrazole] | 37.9 | 1.4 | 
2 | Cc1cc(C)n(C(=O)CCNS(=O)(=O)c2ccc(Cl)cc2)n1 [Example 8, 1-[N-(p-chlorobenzenesulfonyl)-β-alanyl]-3,5-dimethylpyrazole] | 42.5 | 22.1 | 
3 | CC(=O)NCCc1ccc(S(=O)(=O)NCC(=O)n2nc(C)cc2C)cc1 [Example 5, 1-≡N-[p-(2-acetaminoethyl)-benzenesulfonyl]-glycyl.quadrature.-3,5-dimethylpyrazole] | 35.2 | 34.1 | 
4 | Cc1cc(C)n(C(=O)[C@H](Cc2ccccc2)NS(=O)(=O)c2ccc(Cl)cc2)n1 [Example 14, 1-[N-(p-chlorobenzenesulfonyl)-phenylalanyl]-3,5-dimethylpyrazole] | 43.6 | -0.9 | 
5 | Cc1cc(C)n(C(=O)[C@H](C)NS(=O)(=O)c2ccc(Cl)cc2)n1 [Example 13, 1-[N-(p-chlorobenzenesulfonyl)-alanyl]-3,5-dimethylpyrazole] | 51.3 | 5 | 
6 | CCOC(=O)NCCc1ccc(S(=O)(=O)NCC(=O)n2nc(C)cc2C)cc1 [Example 6, 1-≡N-[p-(2-ethoxycarbonylaminoethyl)benzenesulfonyl]-glycyl.quadrature.-3,5-dimethylpyrazole] | 33.3 | 22.1 | 
7 | Cc1cc(C)n(C(=O)CNS(=O)(=O)c2ccc(C3CCCCC3)cc2)n1 [Example 10, 1-[N-(p-cyclohexylbenzenesulfonyl)-glycyl]-3,5-dimethylpyrazole] | 42.1 | 3.3 | 
8 | Cc1cc(C)n(C(=O)C(NS(=O)(=O)c2ccc(Cl)cc2)c2ccccc2)n1 (stereo not drawn) [Example 12, 1-[N-(p-chlorobenzenesulfonyl)-α-phenylglycyl]-3,5-dimethylpyrazole] | 32.6 | 4 | 
9 | [H]/N=C(/N)N/C(=N/[H])NCCc1ccccc1 [Phenformin, phenethylbiguanide, reference compound] |  |  | inhibition at 100 mg/kg [2]: 79.9 ± 2.9%; Serum FFA level [3]: 59.8 ± 18.0 μ Eq/dl; Blood glucose before administration ([4]; 100 mg/kg oral group, before administration (baseline)): 368.7 ± 31.3 mg%; Blood glucose 2 hours ([4]; 100 mg/kg oral, 2 hours): 262.2 ± 43.3 mg%; Blood glucose 4 hours ([4]; 100 mg/kg oral, 4 hours): 196.0 ± 48.9 mg%; Blood glucose 6 hours ([4]; 100 mg/kg oral, 6 hours): 133.7 ± 29.3 mg%; Blood glucose level [5]: 103.0 ± 6.9 mg/dL; Cholesterol [6]: 63.5 ± 5.4 mg/dl serum; FFA [7]: 89.9 ± 16.4 μ Eq/dl serum
10 | COCCOc1cnc(NS(=O)(=O)c2ccccc2)nc1 [sodium glymidine] |  |  | Hypoglycemic effect (in words) [8]: no hypoglycemic effect; Effect on serum FFA level (in words, FIG. 1) [9]: only a slight suppression
11 | Cc1cc(C)n(C(=O)CCNS(=O)(=O)c2ccccc2)n1 [Example 1, 1-(N-benzenesulfonyl-β-alanyl)-3,5-dimethylpyrazole] | 22.1 | 19.8 | 
12 | CCOC(=O)NCCc1ccc(S(=O)(=O)NCCC(=O)n2nc(C)cc2C)cc1 [Example 7, 1-≡N-[p-(2-ethoxycarbonylaminoethyl)benzenesulfonyl]-β -alanyl.qu adrature.-3,5-dimethylpyrazole] | 41.6 | 23.3 | 
13 | COc1ccc(Cl)cc1C(=O)NCCc1ccc(S(=O)(=O)NCC(=O)n2nc(C)cc2C)cc1 [Example 9, 1-≡N-≡p-[2-(2-methoxy-5-chlorobenzoylamino)-ethyl]benzenesulfonyl.quadrature.glycyl.quadrature.-3,5-dimethyl-pyrazole] | 48.1 | 17.7 | 
14 | Cc1cc(C)n(C(=O)CCNS(=O)(=O)c2ccc(CCNC(=O)c3cnccn3)cc2)n1 [Example 3, 1-≡N-≡ p-[2-(2-pyrazinecarbonyl-amino)ethyl]benzenesulfonyl.quadrature. -β-alanyl.quadrature. -3,5-dimethylpyrazole] | 41.7 | 25.7 | 
15 | CC(=O)NCCc1ccc(S(=O)(=O)NCCC(=O)n2nc(C)cc2C)cc1 [Example 2, 1-≡N-[p-(2-acetaminoethyl)benzene-sulfonyl]-β-alanyl.quadrature. -3,5-dimethylpryrazole] | 37.1 | 26 | 
